Data as given in ChEMBL document CHEMBL3045193, “Synthesis and Herbicidal Activity of 1H-2, 3-Benzoxazine Derivatives” (J Pestic Sci, 2002).

Tests used:
Echinochloa crus-galli [1] = assay: Herbicidal activity against Echinochloa crus-galli (barnyard grass) assessed as killing at 2 kg/ha; assay type: functional
Digitaria ciliaris [2] = assay: Herbicidal activity against Digitaria ciliaris assessed as killing at 2 kg/ha; assay type: functional
Gossypium hirsutum [3] = assay: Toxicity in Gossypium hirsutum (cotton) assessed as killing at 2 kg/ha by crop selectivity assay; assay type: organism-based; conditions: in vivo
Persicaria lapathifolia [4] = assay: Herbicidal activity against Persicaria lapathifolia assessed as killing at 1 kg/ha; assay type: functional
Echinochloa crus-galli [5] = assay: Herbicidal activity against Echinochloa crus-galli (barnyard grass) assessed as killing at 1 kg/ha; assay type: functional
Glycine max [6] = assay: Toxicity in Glycine max (soybean) assessed as killing at 1 kg/ha by crop selectivity assay; assay type: organism-based; conditions: in vivo
Amaranthus viridis [7] = assay: Herbicidal activity against Amaranthus viridis assessed as killing at 2 kg/ha; assay type: functional
Amaranthus viridis [8] = assay: Herbicidal activity against Amaranthus viridis assessed as killing at 1 kg/ha; assay type: functional
Persicaria lapathifolia [9] = assay: Herbicidal activity against Persicaria lapathifolia assessed as killing at 2 kg/ha; assay type: functional
Glycine max [10] = assay: Toxicity in Glycine max (soybean) assessed as killing at 2 kg/ha by crop selectivity assay; assay type: organism-based; conditions: in vivo
Gossypium hirsutum [11] = assay: Toxicity in Gossypium hirsutum (cotton) assessed as killing at 1 kg/ha by crop selectivity assay; assay type: organism-based; conditions: in vivo
Triticum aestivum [12] = assay: Toxicity in Triticum aestivum (wheat) plant assessed as killing at 2 kg/ha by crop selectivity assay; assay type: organism-based; conditions: in vivo
Digitaria ciliaris [13] = assay: Herbicidal activity against Digitaria ciliaris assessed as killing at 1 kg/ha; assay type: functional
Triticum aestivum [14] = assay: Toxicity in Triticum aestivum (wheat) plant assessed as killing at 1 kg/ha by crop selectivity assay; assay type: organism-based; conditions: in vivo

Structure (SMILES)	Activity (Echinochloa crus-galli [1]) [%]	Activity (Digitaria ciliaris [2]) [%]	Activity (Amaranthus viridis [7]) [%]	Activity (Persicaria lapathifolia [9]) [%]	also measured
c1ccc(C2=NOCc3ccccc32)cc1	0	20			
Fc1cccc(C2=NOCc3ccccc32)c1	20	60			
Brc1cccc(C2=NOCc3ccccc32)c1	80	100			
Ic1cccc(C2=NOCc3ccccc32)c1	60	60			
Cc1cccc(C2=NOCc3ccccc32)c1	40	60			
COc1cccc(C2=NOCc3ccccc32)c1	0	20			
FC(F)(F)c1cccc(C2=NOCc3ccccc32)c1	70	90			
Oc1cccc(C2=NOCc3ccccc32)c1	0	0			
O=[N+]([O-])c1cccc(C2=NOCc3ccccc32)c1	40	60			
N#Cc1cccc(C2=NOCc3ccccc32)c1	20	40			
Clc1cccc(C2=NOCc3ccccc32)c1Cl	0	0			
Clc1ccc(C2=NOCc3ccccc32)cc1Cl	80	100			
Clc1cc(Cl)cc(C2=NOCc3ccccc32)c1	0	0			
Clc1ccc(Cl)c(C2=NOCc3ccccc32)c1	0	0			
Fc1ccc(C2=NOCc3ccccc32)cc1Cl	100	100	90	100	Activity (Gossypium hirsutum [3]): 20%; Activity (Persicaria lapathifolia [4]): 100%; Activity (Echinochloa crus-galli [5]): 100%; Activity (Glycine max [6]): 0%; Activity (Amaranthus viridis [8]): 80%; Activity (Glycine max [10]): 0%; Activity (Gossypium hirsutum [11]): 0%; Activity (Triticum aestivum [12]): 20%; Activity (Digitaria ciliaris [13]): 100%
Fc1cc(C2=NOCc3ccccc32)ccc1Cl	60	90			
Fc1ccc(C2=NOCc3ccccc32)cc1F	80	80			
Fc1ccc(C2=NOCc3ccccc32)cc1Br	100	100			

Structure (SMILES)	Activity (Echinochloa crus-galli [1]) [%]	Activity (Digitaria ciliaris [2]) [%]	Activity (Amaranthus viridis [7]) [%]	Activity (Persicaria lapathifolia [9]) [%]	also measured
Fc1ccc(C2=NOCc3ccccc32)cc1C(F)(F)F	90	100			
Fc1ccc2c(c1)C(c1ccc(F)c(Cl)c1)=NOC2	60	100			
Fc1ccc2c(c1)CON=C2c1ccc(F)c(Cl)c1	50	100			
Fc1ccc(C2=NOCc3c(F)cccc32)cc1Cl	60	100			
Fc1ccc(C2=NOCc3ccc(Cl)cc32)cc1Cl	90	100			
Fc1ccc(C2=NOCc3cc(Cl)ccc32)cc1Cl	0	60			
Fc1ccc(C2=NOCc3c(Cl)cccc32)cc1Cl	0	0			
Fc1ccc2c(c1)C(c1ccc(F)c(Br)c1)=NOC2	100	100	100	80	Activity (Gossypium hirsutum [3]): 0%; Activity (Persicaria lapathifolia [4]): 60%; Activity (Echinochloa crus-galli [5]): 100%; Activity (Glycine max [6]): 0%; Activity (Amaranthus viridis [8]): 80%; Activity (Glycine max [10]): 0%; Activity (Gossypium hirsutum [11]): 0%; Activity (Triticum aestivum [12]): 20%; Activity (Digitaria ciliaris [13]): 100%
Fc1ccc2c(c1)CON=C2c1ccc(F)c(Br)c1	20	100			
Clc1ccccc1C1=NOCc2ccccc21	0	0	0	0	
Clc1cccc(C2=NOCc3ccccc32)c1	90	100	60	60	
Clc1ccc(C2=NOCc3ccccc32)cc1	40	20	20	0	
Clc1cc(C2=NOCc3ccccc32)ccn1	80	60	60	60	
Clc1ccc(C2=NOCc3ccccc32)s1	20	40	20	20	
Cc1cc(C2=NOCc3ccccc32)no1	0	0	0	0	
Cc1cc(C2=NOCc3ccccc32)on1	0	0	0	0	
Cn1ccnc1C1=NOCc2ccccc21	0	0	0	0	
CCCCCCCC(=O)Oc1c(I)cc(C#N)cc1I [IOXYNIL OCTANOATE]	90	80	100	90	Activity (Gossypium hirsutum [3]): 0%; Activity (Persicaria lapathifolia [4]): 90%; Activity (Echinochloa crus-galli [5]): 80%; Activity (Glycine max [6]): 0%; Activity (Amaranthus viridis [8]): 100%; Activity (Glycine max [10]): 20%; Activity (Gossypium hirsutum [11]): 0%; Activity (Triticum aestivum [12]): 0%; Activity (Triticum aestivum [14]): 0%; Activity (Digitaria ciliaris [13]): 80%
